Data from the supplement of paper PMC10307832.

Columns and labels:
Assay in all cases: relative viability (nuclei count vs DMSO), 5 days (fraction); higher = more cells survive
NVP-TAE684 + Vorinostat = compound: COc1cc(N2CCC(N3CCN(C)CC3)CC2)ccc1Nc1ncc(Cl)c(Nc2ccccc2S(=O)(=O)C(C)C)n1 [NVP-TAE684] + O=C(CCCCCCC(=O)Nc1ccccc1)NO [Vorinostat] (partner 1 µM)
In short: (§1)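 Lung cancer cell lines were seeded in 1536-well plates and dosed by pin tool the next day, with either a single drug or a fixed anchor-drug dose combined with five library-drug doses (not always all listed) spaced in √10 steps. Five days later, one step fixed the cells and stained their nuclei (final 0.05% Triton X-100, 1% formaldehyde, 1 ug/ml Hoechst), and nuclei were counted on 4× images. Relative viability is the nuclei count in treated wells divided by the count in vehicle wells, and each value is the median of duplicate plates.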

CUDC-101 + Olaparib = compound: C#Cc1cccc(Nc2ncnc3cc(OC)c(OCCCCCCC(=O)NO)cc23)c1 [CUDC-101] + O=C(c1cc(Cc2n[nH]c(=O)c3ccccc23)ccc1F)N1CCN(C(=O)C2CC2)CC1 [Olaparib] (partner 8 µM)
In short: as §1

NVP-TAE684 + Navitoclax = compound: COc1cc(N2CCC(N3CCN(C)CC3)CC2)ccc1Nc1ncc(Cl)c(Nc2ccccc2S(=O)(=O)C(C)C)n1 [NVP-TAE684] + CC1(C)CCC(c2ccc(Cl)cc2)=C(CN2CCN(c3ccc(C(=O)NS(=O)(=O)c4ccc(N[C@H](CCN5CCOCC5)CSc5ccccc5)c(S(=O)(=O)C(F)(F)F)c4)cc3)CC2)C1 [Navitoclax] (partner 0.5 µM)
In short: as §1

NVP-TAE684 + Bortezomib = compound: COc1cc(N2CCC(N3CCN(C)CC3)CC2)ccc1Nc1ncc(Cl)c(Nc2ccccc2S(=O)(=O)C(C)C)n1 [NVP-TAE684] + CC(C)C[C@H](NC(=O)[C@H](Cc1ccccc1)NC(=O)c1cnccn1)B(O)O [Bortezomib] (partner 0.002 µM)
In short: as §1

CUDC-101 + Lapatinib = compound: C#Cc1cccc(Nc2ncnc3cc(OC)c(OCCCCCCC(=O)NO)cc23)c1 [CUDC-101] + CS(=O)(=O)CCNCc1ccc(-c2ccc3ncnc(Nc4ccc(OCc5cccc(F)c5)c(Cl)c4)c3c2)o1 [Lapatinib] (partner 2 µM)
In short: as §1

Cell Line	relative viability (NVP-TAE684 + Vorinostat; first compound 0.2 µM)	relative viability (NVP-TAE684 + Vorinostat; first compound 0.6325 µM)	relative viability (NVP-TAE684 + Vorinostat; first compound 2 µM)	relative viability (CUDC-101 + Olaparib; first compound 0.01 µM)	relative viability (CUDC-101 + Olaparib; first compound 0.03162 µM)	relative viability (CUDC-101 + Olaparib; first compound 0.1 µM)	relative viability (CUDC-101 + Olaparib; first compound 0.3162 µM)	relative viability (CUDC-101 + Olaparib; first compound 1 µM)	relative viability (NVP-TAE684 + Navitoclax; first compound 0.6325 µM)	relative viability (NVP-TAE684 + Navitoclax; first compound 2 µM)	relative viability (NVP-TAE684 + Bortezomib; first compound 0.2 µM)	relative viability (NVP-TAE684 + Bortezomib; first compound 0.6325 µM)	relative viability (NVP-TAE684 + Bortezomib; first compound 2 µM)	relative viability (CUDC-101 + Lapatinib; first compound 0.01 µM)	relative viability (CUDC-101 + Lapatinib; first compound 0.03162 µM)	relative viability (CUDC-101 + Lapatinib; first compound 0.1 µM)	relative viability (CUDC-101 + Lapatinib; first compound 0.3162 µM)	relative viability (CUDC-101 + Lapatinib; first compound 1 µM)	relative viability (NVP-TAE684 + Navitoclax; first compound 0.2 µM)
HCC-44	1.18	1.14	0.928	0.964	1.01	0.893	0.972	1.07	1.02	0.453	1	0.863	0.83	0.923	1.07	0.947	0.979	0.812	–
HCC-78	0.316	0.411	0.23	1.01	0.688	0.821	0.584	0.341	0.535	0.282	0.428	0.381	0.307	0.882	0.92	0.808	0.701	0.631	0.433
HCC-366	0.365	0.311	0.239	0.363	0.353	0.325	0.345	0.245	0.999	1.02	0.855	1.08	1.17	1.07	1.06	1.07	0.755	0.459	1.18
LCLC-103H	0.725	0.759	0.653	0.79	0.722	0.731	0.719	0.627	–	–	1.09	1.11	–	–	–	–	–	–	–
LK-2	0.271	0.219	0.215	0.821	0.754	0.597	0.495	0.281	–	0.449	–	–	–	0.981	0.888	0.973	0.887	0.559	0.777
NCI-H358	0.697	0.608	0.0861	0.641	0.625	0.66	0.543	0.408	–	–	–	–	–	0.553	0.397	0.517	0.489	0.29	–
NCI-H441	0.972	0.688	0.56	0.628	0.556	0.679	0.572	0.479	0.583	0.319	0.516	0.358	0.204	–	–	–	–	–	0.472
NCI-H522	0.78	0.855	0.764	0.674	0.624	0.7	0.693	0.529	–	–	–	–	–	–	–	–	–	–	–
NCI-H650	0.428	0.298	0.406	0.393	0.377	0.337	0.299	0.185	–	–	0.784	0.562	0.614	0.947	1.1	0.899	0.582	0.405	–
NCI-H661	0.817	0.741	0.445	0.795	0.69	0.632	0.611	0.437	–	–	0.791	0.88	0.842	0.603	0.449	0.525	0.594	0.506	–
NCI-H1299	–	–	–	0.964	0.953	1	0.98	0.883	1.05	1.05	1.03	1.02	1.06	0.97	0.917	0.883	0.973	0.857	1.08
NCI-H1395	0.71	0.554	0.711	0.472	0.558	0.447	0.435	0.405	1.01	1.02	–	–	–	1.04	1.13	1.05	0.862	0.661	1.79
NCI-H1563	–	–	–	–	–	–	–	–	–	–	–	0.755	0.725	0.846	0.814	1.17	1.13	0.877	–
NCI-H1648	0.27	0.541	0.181	1.19	0.762	0.665	0.748	0.294	–	–	–	–	–	–	–	–	–	–	–
NCI-H1703	–	–	–	–	0.389	0.489	0.662	0.428	1.04	0.215	0.315	0.275	0.129	1.31	1.03	1.07	1.18	0.765	1.17
NCI-H1792	–	–	–	0.495	0.379	0.381	0.407	0.278	0.579	0.558	0.779	0.967	0.819	0.91	0.883	0.877	0.913	0.825	0.533
NCI-H1793	1.14	0.575	0.878	0.857	0.753	0.888	0.944	0.549	0.491	0.43	–	–	–	0.813	0.63	0.731	0.718	0.485	0.467
NCI-H1944	0.637	0.475	0.486	0.4	0.349	0.353	0.333	0.235	0.961	1.08	–	–	–	0.777	0.747	0.799	0.709	0.5	1.19
NCI-H2170	0.771	0.763	0.824	0.643	0.625	0.576	0.583	0.386	0.585	0.591	–	–	–	0.27	0.266	0.297	0.227	0.232	0.56
NCI-H2342	0.848	0.776	0.678	0.425	0.487	0.44	0.513	0.432	–	–	–	–	–	–	–	–	–	–	–
SK-MES-1	0.977	1.09	0.88	0.697	0.775	0.727	0.658	0.512	1.22	0.78	–	–	–	0.466	0.462	0.451	0.461	0.388	1.29
SW 900	0.686	0.46	0.687	0.887	0.811	0.841	0.686	0.628	–	–	–	–	–	–	–	–	–	–	–
